Test results: US12479847B2 (DANA-FARBER CANCER INSTITUTE, INC., priority 2019, dated 2025)

What was measured:
Test in all cases: KINOMEscan (ScanMAX) kinase profiling
Type in all cases: binding
panel of 468 kinases [1] = target: T1, panel of 468 kinases (Homo sapiens, UniProt Q8IVH8); settings: MAP4K3; 1 μM; read-out: % control
T1 construct: purchased KINOMEscan (ScanMAX) service
T1 sequence (Q8IVH8 1-894): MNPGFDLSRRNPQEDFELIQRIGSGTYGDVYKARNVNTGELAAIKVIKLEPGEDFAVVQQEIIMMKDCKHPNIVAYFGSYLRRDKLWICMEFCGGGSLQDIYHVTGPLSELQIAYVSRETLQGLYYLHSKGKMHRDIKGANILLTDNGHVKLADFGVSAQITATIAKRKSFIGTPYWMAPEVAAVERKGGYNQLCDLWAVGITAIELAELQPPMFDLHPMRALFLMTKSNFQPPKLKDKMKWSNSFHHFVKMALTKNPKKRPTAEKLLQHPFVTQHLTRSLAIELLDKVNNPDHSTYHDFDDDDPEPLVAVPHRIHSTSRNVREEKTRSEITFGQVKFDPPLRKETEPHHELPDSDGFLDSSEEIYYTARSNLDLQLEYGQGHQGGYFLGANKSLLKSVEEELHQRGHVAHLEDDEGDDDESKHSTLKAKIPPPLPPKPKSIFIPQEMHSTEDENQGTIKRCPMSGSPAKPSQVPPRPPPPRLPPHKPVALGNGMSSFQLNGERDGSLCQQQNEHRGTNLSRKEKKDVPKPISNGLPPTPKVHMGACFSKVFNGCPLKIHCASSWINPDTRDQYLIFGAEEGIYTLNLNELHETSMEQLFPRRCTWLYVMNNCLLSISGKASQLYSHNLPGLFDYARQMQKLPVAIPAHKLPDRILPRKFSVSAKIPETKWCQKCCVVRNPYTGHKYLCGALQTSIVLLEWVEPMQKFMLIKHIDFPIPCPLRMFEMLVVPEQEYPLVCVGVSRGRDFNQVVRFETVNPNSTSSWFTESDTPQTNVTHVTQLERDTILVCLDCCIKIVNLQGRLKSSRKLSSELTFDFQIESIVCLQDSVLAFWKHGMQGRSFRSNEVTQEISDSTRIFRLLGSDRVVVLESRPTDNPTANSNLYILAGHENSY

panel of 468 kinases [2] = target: T2, panel of 468 kinases (Homo sapiens, UniProt P42685); settings: FRK; 1 μM; read-out: % control
T2 construct: purchased KINOMEscan (ScanMAX) service

panel of 468 kinases [3] = target: T3, panel of 468 kinases (Homo sapiens, UniProt P54760); settings: EPHB4; 1 μM; read-out: % control
T3 construct: purchased KINOMEscan (ScanMAX) service
T3 sequence (P54760 16-987): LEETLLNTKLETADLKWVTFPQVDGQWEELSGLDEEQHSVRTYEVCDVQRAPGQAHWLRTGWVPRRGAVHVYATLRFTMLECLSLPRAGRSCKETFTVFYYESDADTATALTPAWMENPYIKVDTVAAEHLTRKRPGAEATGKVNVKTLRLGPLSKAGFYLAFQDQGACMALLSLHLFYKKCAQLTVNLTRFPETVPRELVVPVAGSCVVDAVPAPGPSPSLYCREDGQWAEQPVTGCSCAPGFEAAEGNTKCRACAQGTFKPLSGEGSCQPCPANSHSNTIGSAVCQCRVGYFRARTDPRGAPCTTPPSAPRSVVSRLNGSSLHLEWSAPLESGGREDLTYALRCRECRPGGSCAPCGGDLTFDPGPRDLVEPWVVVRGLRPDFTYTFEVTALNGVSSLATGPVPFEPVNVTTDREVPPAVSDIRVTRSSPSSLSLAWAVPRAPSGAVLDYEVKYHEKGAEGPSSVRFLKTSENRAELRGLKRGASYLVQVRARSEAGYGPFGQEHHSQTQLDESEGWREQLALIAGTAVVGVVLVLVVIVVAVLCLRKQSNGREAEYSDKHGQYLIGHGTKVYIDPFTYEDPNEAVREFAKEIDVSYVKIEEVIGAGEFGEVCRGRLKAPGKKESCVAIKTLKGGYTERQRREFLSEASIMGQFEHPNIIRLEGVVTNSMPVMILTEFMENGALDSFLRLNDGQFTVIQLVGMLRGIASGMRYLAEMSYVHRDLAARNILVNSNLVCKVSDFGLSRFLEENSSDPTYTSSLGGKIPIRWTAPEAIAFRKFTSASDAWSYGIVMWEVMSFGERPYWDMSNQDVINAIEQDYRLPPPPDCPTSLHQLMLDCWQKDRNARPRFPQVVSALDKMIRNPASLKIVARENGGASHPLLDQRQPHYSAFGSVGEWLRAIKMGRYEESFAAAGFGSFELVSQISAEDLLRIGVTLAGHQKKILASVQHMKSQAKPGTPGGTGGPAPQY

panel of 468 kinases [4] = target: T4, panel of 468 kinases (Homo sapiens, UniProt P12931); settings: SRC; 1 μM; read-out: % control
T4 construct: purchased KINOMEscan (ScanMAX) service

panel of 468 kinases [5] = target: T5, panel of 468 kinases (Homo sapiens, UniProt Q13976); settings: PRKG1; 1 μM; read-out: % control
T5 construct: purchased KINOMEscan (ScanMAX) service
T5 sequence (Q13976 1-671): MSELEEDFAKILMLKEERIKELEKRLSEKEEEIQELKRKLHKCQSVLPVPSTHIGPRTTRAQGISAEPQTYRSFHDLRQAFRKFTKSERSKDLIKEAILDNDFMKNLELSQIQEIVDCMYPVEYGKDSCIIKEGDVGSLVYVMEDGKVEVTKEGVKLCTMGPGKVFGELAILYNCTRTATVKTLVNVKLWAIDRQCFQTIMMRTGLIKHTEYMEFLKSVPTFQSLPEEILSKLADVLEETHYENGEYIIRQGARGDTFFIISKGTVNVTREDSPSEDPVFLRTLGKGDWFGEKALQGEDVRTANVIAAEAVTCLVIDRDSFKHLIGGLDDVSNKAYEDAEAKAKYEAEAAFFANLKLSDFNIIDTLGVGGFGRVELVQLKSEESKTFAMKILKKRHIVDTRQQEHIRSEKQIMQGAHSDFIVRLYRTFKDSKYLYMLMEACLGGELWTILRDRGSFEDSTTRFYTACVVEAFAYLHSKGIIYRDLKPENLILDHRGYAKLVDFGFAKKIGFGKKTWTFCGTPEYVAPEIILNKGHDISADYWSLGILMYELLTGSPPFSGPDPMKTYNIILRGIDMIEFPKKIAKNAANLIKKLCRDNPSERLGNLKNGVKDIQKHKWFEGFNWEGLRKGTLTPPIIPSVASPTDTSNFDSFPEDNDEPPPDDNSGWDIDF

T2 sequence (P42685 whole entry): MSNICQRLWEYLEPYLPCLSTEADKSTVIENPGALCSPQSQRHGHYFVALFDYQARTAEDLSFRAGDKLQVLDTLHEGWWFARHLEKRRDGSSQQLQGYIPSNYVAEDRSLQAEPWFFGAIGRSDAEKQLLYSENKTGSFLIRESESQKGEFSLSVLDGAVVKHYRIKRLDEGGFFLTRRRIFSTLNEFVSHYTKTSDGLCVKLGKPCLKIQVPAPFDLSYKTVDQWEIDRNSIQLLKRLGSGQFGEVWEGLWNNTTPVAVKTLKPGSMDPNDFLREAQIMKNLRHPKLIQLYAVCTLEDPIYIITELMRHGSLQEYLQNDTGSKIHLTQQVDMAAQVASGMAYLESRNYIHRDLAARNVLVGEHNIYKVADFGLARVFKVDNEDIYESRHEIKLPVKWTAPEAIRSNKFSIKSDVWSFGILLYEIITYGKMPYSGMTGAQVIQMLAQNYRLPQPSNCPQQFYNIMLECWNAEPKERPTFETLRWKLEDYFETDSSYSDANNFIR
T4 sequence (P12931 whole entry): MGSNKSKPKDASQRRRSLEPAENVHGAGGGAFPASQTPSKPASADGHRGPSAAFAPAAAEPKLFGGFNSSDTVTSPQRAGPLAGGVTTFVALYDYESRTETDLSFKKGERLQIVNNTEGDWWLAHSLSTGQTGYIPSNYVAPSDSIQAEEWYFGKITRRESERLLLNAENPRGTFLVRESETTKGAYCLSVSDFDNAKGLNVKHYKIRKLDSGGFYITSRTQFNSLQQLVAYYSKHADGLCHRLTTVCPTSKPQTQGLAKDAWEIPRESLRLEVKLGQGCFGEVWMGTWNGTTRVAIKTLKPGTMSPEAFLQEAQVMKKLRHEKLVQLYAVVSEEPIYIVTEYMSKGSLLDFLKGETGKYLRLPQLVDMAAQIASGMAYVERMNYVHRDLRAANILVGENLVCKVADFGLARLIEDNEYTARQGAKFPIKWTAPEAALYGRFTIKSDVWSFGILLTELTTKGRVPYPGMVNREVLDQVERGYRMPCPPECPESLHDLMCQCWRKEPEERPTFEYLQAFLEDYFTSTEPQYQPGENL

Row | Compound | remaining binding at 1 µM (panel of 468 kinases [1]) [%] | remaining binding at 1 µM (panel of 468 kinases [2]) [%] | remaining binding at 1 µM (panel of 468 kinases [3]) [%] | remaining binding at 1 µM (panel of 468 kinases [4]) [%] | remaining binding at 1 µM (panel of 468 kinases [5]) [%]
1 | CNc1nc(Nc2ccc(C(=O)N3CCC(N4CCOCC4)CC3)c3c2OCO3)nc2[nH]cc(Cl)c12 [Compound 75, (7-((5-chloro-4-(methylamino)-7H-pyrrolo[2,3-d]pyrimidin-2-yl)amino)benzo[d][1,3]dioxol-4-yl)(4-morpholinopiperidin-1-yl)methanone] | 81 | 100 | 100 | 100 | 100
2 | CNc1nc(Nc2ccc(S(=O)(=O)N3CCC(N4CCOCC4)CC3)cc2OC)nc2[nH]cc(Cl)c12 [Compound 12, 5-chloro-N2-(2-methoxy-4-((4-morpholinopiperidin-1-yl)sulfonyl)phenyl)-N4-methyl-7H-pyrrolo[2,3-d]pyrimidine-2,4-diamine] | 98 | 100 | 100 | 100 | 100
3 | CNc1nc(Nc2ccc(P3(=O)CCN(C4CCOCC4)CC3)cc2OC)nc2[nH]cc(Cl)c12 [Compound 77, 4-(4-((5-chloro-4-(methylamino)-7H-pyrrolo[2,3-d]pyrimidin-2-yl)amino)-3-methoxyphenyl)-1-(tetrahydro-2H-pyran-4-yl)-1,4-azaphosphinane 4-oxide] | 100 | 100 | 100 | 100 | 100
